Laboratory results from patent US20130295199A1, “Composition Comprising OPC and Omega-3 for Preventing and/or Inhibiting the Development of Diabetic Retinopathy” (VISIOTACT PHARMA, priority 2011, published 2013).

Key:
[1] = system: retinal acellular capillaries; test: Quantitation of acellular capillaries in retina of diabetic animals; type: in vivo, rat; details: FIG. 5, result in words
Experimental: (§1) Sprague-Dawley rats (Harlan), weighing 75-100 g, were assigned to one of eight subgroups, based on non-diabetic, untreated diabetic and treated diabetic groups as indicated here-under. Sprague-Dawley rats were housed in a constant environment (room temperature (22.0±1.5)° C., room humidity (55±5) %) with a normal light-dark cycle (12-hour light, 12-hour dark). Diabetes was induced by intraperitoneal streptozotocin injection (75 mg/kg STZ, 10 mM citrate buffer, pH 4.5). Non-diabetic control animals received an equivalent dose of vehicle (citrate buffer at pH 4.6).
Evaluation of the retinal vasculature is done following adenosine diphosphatase (ADPase) activity in whole embedded retina. After overnight fixation in 2% PFA in 0.1 M cacodylate buffer at 4° C., an incision was made 2 mm posterior to the ora serrata, and the anterior segment of the eye was removed. […] The ADPase-incubated retina was washed in 0.1 M cacodylate buffer with 5% sucrose. […] Retinal microvascular density was quantified using Image J software.
After TUNEL-positive cells were counted, coverslips were soaked off, and the retinal vasculature then was stained with hematoxylin-periodic acid-Schiff. Acellular capillaries were counted in four to seven field areas in the mid retina. […] Although counting the ghosts, at least 1000 capillary cells (endothelial cells and pericytes) were counted in five mid-retinal field areas. […]

[2] = system: Type-1 streptozotocin-induced diabetic Sprague-Dawley rats; test: Streptozotocin-induced diabetic rat model: body weight, blood glucose, glycated hemoglobin; type: in vivo; details: STZ-induced diabetic Sprague-Dawley rats, after 90 days of treatment, n=20/group, mean +/- SEM
Experimental: as §1
To analyse the effect of the composition of the invention, animals are fed as followed:
Diabetic and non-diabetic groups were examined biweekly to follow blood glucose and the body weight was recorded. 50 μL of whole blood was collected in potassium-EDTA tubes (Becton Dickinson) for subsequent analysis of glycated hemoglobin (GHb).

[3] = system: advanced glycation end product (AGE), retinal carboxymethyl-lysine; test: Retinal carboxymethyl-lysine measurement (AGE-product quantification), ELISA; type: in vivo, rat; details: STZ-induced diabetic Sprague-Dawley rats, after 90 days of treatment, n=20/group, mean +/- SEM
Experimental: as §1
Retinal samples were exposed to ultrasonic disruption in RIPA buffer. After tissue debris suppression by centrifugation, protein level of samples was measured using bicinchoninic acid (BCA) protein assay kit (Pierce). Sample (concentration: 50 μg/mL) or advanced glycation end product (AGE)-BSA standard (0 to 200 μM) diluted in 0.05% Tween 20 and 0.2% BSA in 75 mM PBS were placed in duplicate into 96-wells plate (Nunc C96 Maxisorp; eBioscience) coated with solid-phase antigen (1 μg/mL AGE-BSA). Anti-CML rabbit polyclonal antibody was added for 2 hours at room temperature and then washed in 0.2 mM KH2PO4, 1.4 mM K2HPO4, 3 mM NaCl, 0.45 μM sorbic acid potassium, and 0.01% Tween-20 buffer. […] Absorbance was measured at 450 nm on a microplate reader (Biorad).

Substance: docosahexaneoic acid (DHA) [Group G2]
- Capillary degeneration (degenerated acellular capillaries) [1]: significantly inhibited
- Body weight [2]: 220 ± 10 g
- GHb (glycated hemoglobin) [2]: 5.85 +/− 0.03%
- Glucose [2]: 525 ± 10 mg/dL
- AGE (advanced glycation end product) [3]: 0.026 +/− 0.004 AU/mg
